Literature values in patent US20240424053A1, “METHODS AND COMPOSITIONS FOR PROVIDING MYOCARDIAL PROTECTION AND TREATING MYOCARDIAL STRESS AND FIBROSIS” (Tufts Medical Center, Inc., priority 2021, published 2024).

Target: T1, Xa (Homo sapiens, UniProt P00742)
T1 construct: host or cells: HF patients
Details: in vivo; cited from earlier work

T1 sequence (P00742 235-488 limits assumed): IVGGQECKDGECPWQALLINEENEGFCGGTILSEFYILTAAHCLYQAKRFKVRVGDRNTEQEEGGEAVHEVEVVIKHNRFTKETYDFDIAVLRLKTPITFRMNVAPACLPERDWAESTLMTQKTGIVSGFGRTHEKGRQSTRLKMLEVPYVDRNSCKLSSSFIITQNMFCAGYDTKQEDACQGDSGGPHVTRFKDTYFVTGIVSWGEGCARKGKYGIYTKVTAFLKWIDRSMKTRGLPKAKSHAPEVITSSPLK
T1 sequence (P00742 41-179 partner limits assumed): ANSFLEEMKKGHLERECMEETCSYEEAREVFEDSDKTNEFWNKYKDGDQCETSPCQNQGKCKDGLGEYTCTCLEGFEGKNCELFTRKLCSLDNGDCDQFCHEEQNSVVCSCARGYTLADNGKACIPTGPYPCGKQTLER

O=C(NC[C@H]1CN(c2ccc(N3CCOCC3=O)cc2)C(=O)O1)c1ccc(Cl)s1 [rivaroxaban]
clinical benefit in HF patients: no clear benefit
